This note sets out measurements from patent US8796466B2, “Hepatitis C virus inhibitors” (Bristol-Myers Squibb Company, priority 2009, dated 2014).

Like-named read-outs stand apart in the source and are kept apart here.

This assay relates to HCV 1b genotype. The assay can be described thus: HCV Replicon assay (HCV 1b genotype). The format is cell-based, Hepatitis C virus. The conditions noted are these: Hepatitis C virus, HCV 1b genotype replicon. Here is the method:
An HCV Replicon assay was utilized in the present disclosure, and was prepared, conducted and validated as described in commonly owned PCT/US2006/022197 and in O'Boyle et. al. Antimicrob Agents Chemother. 2005 April; 49(4):1346-53. Assay methods incorporating luciferase reporters have also been used as described (Apath.com).
HCV-neo replicon cells and replicon cells containing mutations in the NS5A region were used to test the currently described family of compounds. The compounds were determined to have more than 10-fold less inhibitory activity on cells containing mutations than wild-type cells. Thus, the compounds of the present disclosure can be effective in inhibiting the function of the HCV NS5A protein and are understood to be as effective in combinations as previously described in application PCT/US2006/022197 and commonly owned WO/04014852. Further, the compounds of the present disclosure can be effective against the HCV 1b genotype. It should also be understood that the compounds of the present disclosure can inhibit multiple genotypes of HCV. […] In one embodiment, compounds of the present disclosure are inhibitory versus 1a, 1b, 2a, 2b, 3a, 4a, and 5a genotypes.

Setting [1] is: class symbol, read-out: Range (EC50 values against HCV 1b).
Setting [2] is: Effective 50% inhibitory concentration, read-out: 1b EC50.

One may read the EC50 as the concentration needed to bring the measured effect to its halfway point. In the case of `COC(=O)N[C@H](C(=O)N1CCOCC1c1ncc(-c2ccc(C#Cc3ccc(-c4cnc(C5COCCN5C(=O)[C@@H](NC(=O)OC)C(C)C)[nH]4)cc3)cc2)[nH]1)C(C)C` (stereo in doubt) [Example N5, methyl ((1S)-1-(((3S)-3-(4-(4-((4-(2-((3S)-4-((2S)-2-((methoxycarbonyl)amino)-3-methylbutanoyl)-3-morpholinyl)-1H-imidazol-4-yl)phenyl)ethynyl)phenyl)-1H-imidazol-2-yl)-4-morpholinyl)carbonyl)-2-methylpropyl)carbamate], under setting [1], the EC50 was in the range of 0.002 to 0.099 nM.

`COC(=O)N[C@@H](C(=O)N1CCC[C@H]1c1nc(-c2ccc(-c3ccc(-c4ccc(-c5c[nH]c([C@@H]6CCCN6C(=O)[C@H](NC(=O)OC)c6ccccc6)n5)cc4)cc3)cc2)c[nH]1)c1ccccc1` [Example D-1, dimethyl (1,1′:4′,1″-terphenyl-4,4″-diylbis(1H-imidazole-4,2-diyl(2S)-2,1-pyrrolidinediyl((1R)-2-oxo-1-phenyl-2,1-ethanediyl)))biscarbamate]: under setting [1], the EC50 was in the range of 0.002 to 0.099 nM.

For the compound `CN(C)[C@@H](C(=O)N1CCC[C@H]1c1nc(-c2ccc(-c3ccc(-c4ccc(-c5c[nH]c([C@@H]6CCCN6C(=O)[C@@H](c6ccccc6)N(C)C)n5)cc4)cc3)cc2)c[nH]1)c1ccccc1` [Example D-2, (1R)-2-((2S)-2-(4-(4″-(2-((2S)-1-((2R)-2-(dimethylamino)-2-phenylacetyl)-2-pyrrolidinyl)-1H-imidazol-5-yl)-1,1′:4′,1″-terphenyl-4-yl)-1H-imidazol-2-yl)-1-pyrrolidinyl)-N,N-dimethyl-2-oxo-1-phenylethanamine], the EC50 under setting [1] fell in the range of 0.1 to 0.99 nM.

With `COC(=O)N[C@H](C(=O)N1CCC[C@H]1c1ncc(-c2ccc(C#Cc3ccc4c(c3)CCc3nc([C@@H]5CCCN5C(=O)[C@@H](NC(=O)OC)C(C)C)[nH]c3-4)cc2)[nH]1)C(C)C` [Example D-3, methyl ((1S)-1-(((2S)-2-(4-(4-((2-((2S)-1-((2S)-2-((methoxycarbonyl)amino)-3-methylbutanoyl)-2-pyrrolidinyl)-4,5-dihydro-1H-naphtho[1,2-d]imidazol-7-yl)ethynyl)phenyl)-1H-imidazol-2-yl)-1-pyrrolidinyl)carbonyl)-2-methylpropyl)carbamate], the EC50 by setting is: under setting [2], 0.006 nM; under setting [1], 0.002 to 0.099 nM.

Turning to `COC(=O)N[C@@H](C(=O)N1CCC[C@H]1c1ncc(-c2ccc(C#Cc3ccc4c(c3)CCc3nc([C@@H]5CCCN5C(=O)[C@H](NC(=O)OC)c5ccccc5)[nH]c3-4)cc2)[nH]1)c1ccccc1` [Example D-4, methyl ((1R)-2-((2S)-2-(4-(4-((2-((2S)-1-((2R)-2-((methoxycarbonyl)amino)-2-phenylacetyl)-2-pyrrolidinyl)-4,5-dihydro-1H-naphtho[1,2-d]imidazol-7-yl)ethynyl)phenyl)-1H-imidazol-2-yl)-1-pyrrolidinyl)-2-oxo-1-phenylethyl)carbamate], the EC50 under setting [1] is 0.002 to 0.099 nM.

For `COC(=O)N[C@@H](C(=O)N1CCC[C@H]1c1ncc(-c2ccc(C#Cc3ccc4c(ccc5nc([C@@H]6CCCN6C(=O)[C@H](NC(=O)OC)c6ccccc6)[nH]c54)c3)cc2)[nH]1)c1ccccc1` [Example D-5, methyl ((1R)-2-((2S)-2-(7-((4-(2-((2S)-1-((2R)-2-((methoxycarbonyl)amino)-2-phenylacetyl)-2-pyrrolidinyl)-1H-imidazol-4-yl)phenyl)ethynyl)-1H-naphtho[1,2-d]imidazol-2-yl)-1-pyrrolidinyl)-2-oxo-1-phenylethyl)carbamate], under setting [1], the EC50 is 0.002 to 0.099 nM.

In the case of `COC(=O)N[C@H](C(=O)N1CCC[C@H]1c1ncc(-c2ccc(C#Cc3ccc4c(ccc5nc([C@@H]6CCCN6C(=O)[C@@H](NC(=O)OC)C(C)C)[nH]c54)c3)cc2)[nH]1)C(C)C` [Example D-6, methyl ((1S)-1-(((2S)-2-(4-(4-((2-((2S)-1-((2S)-2-((methoxycarbonyl)amino)-3-methylbutanoyl)-2-pyrrolidinyl)-1H-naphtho[1,2-d]imidazol-7-yl)ethynyl)phenyl)-1H-imidazol-2-yl)-1-pyrrolidinyl)carbonyl)-2-methylpropyl)carbamate], the EC50 under setting [1] lay within 0.002 to 0.099 nM.

On to `COC(=O)N[C@H](C(=O)N1[C@@H]2C[C@@H]2C[C@H]1c1ncc(-c2ccc(C#Cc3ccc4c(ccc5nc([C@@H]6C[C@H]7C[C@H]7N6C(=O)[C@@H](NC(=O)OC)C(C)C)[nH]c54)c3)cc2)[nH]1)C(C)C` [Example D-7, methyl ((1S)-1-(((1R,3S,5R)-3-(4-(4-((2-((1R,3S,5R)-2-((2S)-2-((methoxycarbonyl)amino)-3-methylbutanoyl)-2-azabicyclo[3.1.0]hex-3-yl)-1H-naphtho[1,2-d]imidazol-7-yl)ethynyl)phenyl)-1H-imidazol-2-yl)-2-azabicyclo[3.1.0]hex-2-yl)carbonyl)-2-methylpropyl)carbamate], for which the EC50 under setting [1] is 0.002 to 0.099 nM.

With `COC(=O)N[C@@H](C(=O)N1[C@@H]2C[C@@H]2C[C@H]1c1ncc(-c2ccc(C#Cc3ccc4c(ccc5nc([C@@H]6C[C@H]7C[C@H]7N6C(=O)[C@H](NC(=O)OC)c6ccccc6)[nH]c54)c3)cc2)[nH]1)c1ccccc1` [Example D-8, methyl ((1R)-2-((1R,3S,5R)-3-(7-((4-(2-((1R,3S,5R)-2-((2R)-2-((methoxycarbonyl)amino)-2-phenylacetyl)-2-azabicyclo[3.1.0]hex-3-yl)-1H-imidazol-4-yl)phenyl)ethynyl)-1H-naphtho[1,2-d]imidazol-2-yl)-2-azabicyclo[3.1.0]hex-2-yl)-2-oxo-1-phenylethyl)carbamate], the EC50 is 0.005 nM under setting [2] and 0.002 to 0.099 nM under setting [1].

For `COC(=O)N[C@H](C(=O)N1[C@@H]2C[C@@H]2C[C@H]1c1nc2c([nH]1)-c1ccc(C#Cc3ccc4c(c3)CCc3nc([C@@H]5C[C@H]6C[C@H]6N5C(=O)[C@@H](NC(=O)OC)C(C)C)[nH]c3-4)cc1CC2)C(C)C` [Example D-9, methyl ((1S)-1-(((1R,3S,5R)-3-(7-((2-((1R,3S,5R)-2-((2S)-2-((methoxycarbonyl)amino)-3-methylbutanoyl)-2-azabicyclo[3.1.0]hex-3-yl)-4,5-dihydro-1H-naphtho[1,2-d]imidazol-7-yl)ethynyl)-4,5-dihydro-1H-naphtho[1,2-d]imidazol-2-yl)-2-azabicyclo[3.1.0]hex-2-yl)carbonyl)-2-methylpropyl)carbamate], the EC50 under setting [1] lay within 0.002 to 0.099 nM.

In the case of `COC(=O)N[C@H](C(=O)N1[C@@H]2C[C@@H]2C[C@H]1c1nc2ccc3cc(C#Cc4ccc5c(ccc6nc([C@@H]7C[C@H]8C[C@H]8N7C(=O)[C@@H](NC(=O)OC)C(C)C)[nH]c65)c4)ccc3c2[nH]1)C(C)C` [Example D-10, methyl ((1S)-1-(((1R,3S,5R)-3-(7-((2-((3S)-2-((2S)-2-((methoxycarbonyl)amino)-3-methylbutanoyl)-2-azabicyclo[3.1.0]hex-3-yl)-1H-naphtho[1,2-d]imidazol-7-yl)ethynyl)-1H-naphtho[1,2-d]imidazol-2-yl)-2-azabicyclo[3.1.0]hex-2-yl)carbonyl)-2-methylpropyl)carbamate], the EC50 under setting [1] is 0.002 to 0.099 nM.

With `COC(=O)N[C@H](C(=O)N1[C@@H]2C[C@@H]2C[C@H]1c1nc2ccc3cc(C#Cc4ccc5c(ccc6nc([C@@H]7C[C@H]8C[C@H]8N7C(=O)[C@@H](NC(=O)OC)C7CCOCC7)[nH]c65)c4)ccc3c2[nH]1)C(C)C` [Example D-11, methyl ((1S)-2-((1R,3S,5R)-3-(7-((2-((1R,3S,5R)-2-((2S)-2-((methoxycarbonyl)amino)-3-methylbutanoyl)-2-azabicyclo[3.1.0]hex-3-yl)-1H-naphtho[1,2-d]imidazol-7-yl)ethynyl)-1H-naphtho[1,2-d]imidazol-2-yl)-2-azabicyclo[3.1.0]hex-2-yl)-2-oxo-1-(tetrahydro-2H-pyran-4-yl)ethyl)carbamate], the EC50 under setting [1] was in the range of 0.002 to 0.099 nM.

As to `COC(=O)N[C@H](C(=O)N1CCC[C@H]1c1nc(-c2cccc(C#Cc3cccc(-c4c[nH]c([C@@H]5CCCN5C(=O)[C@@H](NC(=O)OC)C(C)C)n4)c3)c2)c[nH]1)C(C)C` [Example J1, methyl ((1S)-1-(((2S)-2-(4-(3-((3-(2-((2S)-1-((2S)-2-((methoxycarbonyl)amino)-3-methylbutanoyl)-2-pyrrolidinyl)-1H-imidazol-4-yl)phenyl)ethynyl)phenyl)-1H-imidazol-2-yl)-1-pyrrolidinyl)carbonyl)-2-methylpropyl)carbamate], the EC50 under setting [1] was 0.002 to 0.099 nM.

Take `COC(=O)N[C@H](C(=O)N1CCC[C@H]1c1nc(-c2cccc(C#Cc3cccc(-c4c[nH]c([C@@H]5CCCN5)n4)c3)c2)c[nH]1)C(C)C` [Example J1.1, methyl ((1S)-2-methyl-1-(((2S)-2-(4-(3-((3-(2-((2S)-2-pyrrolidinyl)-1H-imidazol-4-yl)phenyl)ethynyl)phenyl)-1H-imidazol-2-yl)-1-pyrrolidinyl)carbonyl)propyl)carbamate]: the EC50 under setting [2] is 339 nM and the EC50 under setting [1] lay in the range of 10 to 350 nM.

`COC(=O)N[C@H](C(=O)N1CCC[C@H]1c1ncc(-c2cccc(C#Cc3cccc(-c4cnc([C@@H]5CCCN5C(=O)[C@@H](NC(=O)OC)C5CCOCC5)[nH]4)c3)c2)[nH]1)C1CCOCC1` [Example J2, dimethyl (1,2-ethynediylbis(3,1-phenylene-1H-imidazole-4,2-diyl(2S)-2,1-pyrrolidinediyl((1S)-2-oxo-1-(tetrahydro-2H-pyran-4-yl)-2,1-ethanediyl)))biscarbamate]: the EC50 reads like this: under setting [2], 0.12 nM; under setting [1], 0.1 to 0.99 nM.
